Experimental data as given in patent US9284320B2, “Ticagrelor adducts with divalent metal salts” (Lek Pharmaceuticals d.d., priority 2012, dated 2016).
Blank lines part the entries; values can stand above or below the compound they belong to.

Tests used:
[1] = Hygroscopicity observed on isolation of the adduct; type: physicochemical; settings: on air, after filtration under nitrogen
Procedure: To a solution of TCG (0.30 g) in dry MeCN (4 mL) at 60° C. MgCl2 (60 mg) was added in one portion, and the resulting reaction mixture was stirred at 60° C. for 16 h.
To a solution of TCG (0.20 g) in dry MeCN (5 mL) at 50° C. MgBr2 (74 mg) was added in one portion, and the resulting reaction mixture was stirred at 50° C. for 15 min.

[2] = general statement in the description; cited from earlier work
[3] = Physical stability at room temperature (DSC), adduct compared to amorphous TCG; type: physicochemical
Procedure: The so obtained Ia was left at room temperature in a closed vial to test physical stability. DSC analysis was performed after 21 days (FIG. 2) and after 31 days (FIG. 3).
DSC analysis of a sample was performed immediately (FIG. 4). Another sample of the so obtained Ia was left at room temperature to test physical stability.
TCG (0.52 g) was dissolved in 55 mL of aqueous ethanol (50 vol %) with the aid of ultrasonic irradiation. To the solution 33 mL water was poured at once and the obtained turbid mixture was frozen immediately in liquid nitrogen. The material was then lyophilized for 72 h at ˜0.8 mbar. DSC analysis of a sample was performed immediately (FIG. 6). Another sample of the so obtained amorphous TCG was left at room temperature to test physical stability.
Conditions for obtaining DSC thermograms: Thermograms were obtained with Mettler Toledo DSC822e differential scanning calorimeter. The sample (1-10 mg) was placed in an unsealed aluminium pan with a hole and heated at 10° C./min in the temperature range from 30° C. to 250° C.

hygroscopicity [1]: hygroscopic on air
Compound: CCCSc1nc(N[C@@H]2C[C@H]2c2ccc(F)c(F)c2)c2nnn([C@@H]3C[C@H](OCCO)[C@@H](O)[C@H]3O)c2n1 [Ib]

Compound: CCCSc1nc(N[C@@H]2C[C@H]2c2ccc(F)c(F)c2)c2nnn([C@@H]3C[C@H](OCCO)[C@@H](O)[C@H]3O)c2n1 [Ticagrelor, 3-[7-[[(1R,2S)-2-(3,4-difluorophenyl)cyclopropyl]amino]-5-(propylthio)-3H-1,2,3-triazolo[4,5-d]pyrimidin-3-yl]-5-(2-hydroxyethoxy)-(1S,2S,3R,5S)-1,2-cyclopentanediol]
solubility in water [2]: low solubility in water

Compound: CCCSc1nc(N[C@@H]2C[C@H]2c2ccc(F)c(F)c2)c2nnn([C@@H]3C[C@H](OCCO)[C@@H](O)[C@H]3O)c2n1 [amorphous basic ticagrelor]
chemical and physical stability (conversion of amorphous state to crystalline form) [3]: quickly converts to the more stable crystalline forms
